Source: US20250127801A1, “BRIDGED TRICYCLIC CARBAMOYLPYRIDONE COMPOUNDS AND USES THEREOF” (priority 2023, published 2025)
Converted amounts (≈) assume the structure as drawn. Where two headings read alike, the source gives them in different places.

Columns and labels:
[1] = tested on: HIV-1 (IIIB); assay: microbe, parasite or virus in culture; assay type: cell-based
[2] = in vitro; conditions: human; for CC50 at 5 days: uninfected MT-4 cells
[3] = physchem; conditions: 23 °C, thermodynamic from solid; for solubility thermodynamic: fassif; for solubility thermodynamic at 24 h: FaSSIF
[4] = Human immunodeficiency virus 1, IIIB, MT4, 120 h, read-out: MT4 EC50 (nM)
[5] = Human immunodeficiency virus 1, MT4, 120 h, HIV-1 (IIIB) replication in MT-4 cells, 5 days incubation, Cell Titer Glo, read-out: MT4 EC50

Row | SMILES | EC50 [1, 4] [nM] | CC50 [2] [µM] | solubility thermodynamic [3] [mg/mL] | EC50 [1, 5] [nM] | CC50 at 5 days [2] [µM] | solubility thermodynamic at 24 h [3] [mg/mL]
1 | CC1=NO[C@@]2(CC[C@H](C)N3C[C@H]2n2cc(C(=O)NCc4ccc(F)cc4F)c(=O)c(OC(=O)N(C)c4ncccc4CN(CCO)C(=O)OCOP(=O)(O)O)c2C3=O)C1 [Compound 35, (phosphonooxy)methyl ((2-(((((3′S,5S,7′R)-10′-((2,4-difluorobenzyl)carbamoyl)-3,3′-dimethyl-1′,11′-dioxo-1′,4′,5′,11′-tetrahydro-3′H,4H,7′H-spiro[isoxazole-5,6′-[2,7]methanopyrido[1,2-a][1,4]diazonin]-12′-yl)oxy)carbonyl)(methyl)amino)pyridin-3-yl)methyl)(2-hydroxyethyl)carbamate] | 2.04 | 11.6 | 4.46 (≈ 5.26 mM) | – | – | –
2 | CC1=NO[C@@]2(CC[C@H](C)N3C[C@H]2n2cc(C(=O)NCc4ccc(F)cc4F)c(=O)c(OCOC(=O)N(C)Cc4ccccc4OP(=O)(O)O)c2C3=O)C1 [Compound 37, (((3′S,5S,7′R)-10′-((2,4-difluorobenzyl)carbamoyl)-3,3′-dimethyl-1′,11′-dioxo-1′,4′,5′,11′-tetrahydro-3′H,4H,7′H-spiro[isoxazole-5,6′-[2,7]methanopyrido[1,2-a][1,4]diazonin]-12′-yl)oxy)methyl methyl(2-(phosphonooxy)benzyl)carbamate] | 13.3 | 33.5 | 4.5 (≈ 5.92 mM) | – | – | –
3 | CC1=NO[C@@]2(CC[C@H](C)N3C[C@H]2n2cc(C(=O)NCc4ccc(F)cc4F)c(=O)c(OCOC(=O)N(C)Cc4ccc(OP(=O)(O)O)cc4)c2C3=O)C1 [Compound 39, (((3′S,5S,7′R)-10′-((2,4-difluorobenzyl)carbamoyl)-3,3′-dimethyl-1′,11′-dioxo-1′,4′,5′,11′-tetrahydro-3′H,4H,7′H-spiro[isoxazole-5,6′-[2,7]methanopyrido[1,2-a][1,4]diazonin]-12′-yl)oxy)methyl methyl(4-(phosphonooxy)benzyl)carbamate] | 88.7 | ≥ 50 | 4.83 (≈ 6.36 mM) | – | – | –
4 | CC1=NO[C@@]2(CC[C@H](C)N3C[C@H]2n2cc(C(=O)NCc4ccc(F)cc4F)c(=O)c(OCc4ccc(OP(=O)(O)O)cc4)c2C3=O)C1 [Compound 41, 4-((((3′S,5S,7′R)-10′-((2,4-difluorobenzyl)carbamoyl)-3,3′-dimethyl-1′,11′-dioxo-1′,4′,5′,11′-tetrahydro-3′H,4H,7′H-spiro[isoxazole-5,6′-[2,7]methanopyrido[1,2-a][1,4]diazonin]-12′-yl)oxy)methyl)phenyl dihydrogen phosphate] | 0.727 | 12 | 5.08 | – | – | –
5 | CC1=NO[C@@]2(CC[C@H](C)N3C[C@H]2n2cc(C(=O)NCc4ccc(F)cc4F)c(=O)c(OCOC(=O)CC(C)(C)c4c(CC(=O)N[C@@H](CC(=O)O)C(=O)O)cc(C)cc4OP(=O)(O)O)c2C3=O)C1 [Compound 43, (2-(2-(4-((((3′S,5S,7′R)-10′-((2,4-difluorobenzyl)carbamoyl)-3,3′-dimethyl-1′,11′-dioxo-1′,4′,5′,11′-tetrahydro-3′H,4H,7′H-spiro[isoxazole-5,6′-[2,7]methanopyrido[1,2-a][1,4]diazonin]-12′-yl)oxy)methoxy)-2-methyl-4-oxobutan-2-yl)-5-methyl-3-(phosphonooxy)phenyl)acetyl)-L-aspartic acid] | 2.64 | 30.7 | 5.28 (≈ 5.5 mM) | – | – | –
6 | CC1=NO[C@@]2(CC[C@H](C)N3C[C@H]2n2cc(C(=O)NCc4ccc(F)cc4F)c(=O)c(OCOC(=O)O[C@H]4CCCC[C@@H]4OP(=O)(O)O)c2C3=O)C1 [Compound 44, (((3′S,5S,7′R)-10′-((2,4-difluorobenzyl)carbamoyl)-3,3′-dimethyl-1′,11′-dioxo-1′,4′,5′,11′-tetrahydro-3′H,4H,7′H-spiro[isoxazole-5,6′-[2,7]methanopyrido[1,2-a][1,4]diazonin]-12′-yl)oxy)methyl ((1S,2S)-2-(phosphonooxy)cyclohexyl) carbonate] | – | – | – | 1.8 | 13.5 | 4.44 (≈ 6.01 mM)
7 | CC1=NO[C@@]2(CC[C@H](C)N3C[C@H]2n2cc(C(=O)NCc4ccc(F)cc4F)c(=O)c(OCOC(=O)O[C@@H]4CCCC[C@H]4OP(=O)(O)O)c2C3=O)C1 [Compound 45, (((3′S,5S,7′R)-10′-((2,4-difluorobenzyl)carbamoyl)-3,3′-dimethyl-1′,11′-dioxo-1′,4′,5′,11′-tetrahydro-3′H,4H,7′H-spiro[isoxazole-5,6′-[2,7]methanopyrido[1,2-a][1,4]diazonin]-12′-yl)oxy)methyl ((1R,2R)-2-(phosphonooxy)cyclohexyl) carbonate] | – | – | – | 1.73 | 11.4 | 5.33 (≈ 7.21 mM)
8 | CC1=NO[C@@]2(CC[C@H](C)N3C[C@H]2n2cc(C(=O)NCc4ccc(F)cc4F)c(=O)c(OCOC(=O)O[C@H]4CCC[C@@H]4OP(=O)(O)O)c2C3=O)C1 [Compound 46, (((3′S,5S,7′R)-10′-((2,4-difluorobenzyl)carbamoyl)-3,3′-dimethyl-1′,11′-dioxo-1′,4′,5′,11′-tetrahydro-3′H,4H,7′H-spiro[isoxazole-5,6′-[2,7]methanopyrido[1,2-a][1,4]diazonin]-12′-yl)oxy)methyl ((1S,2S)-2-(phosphonooxy)cyclopentyl) carbonate] | – | – | – | 2.51 | 15.1 | 4.85 (≈ 6.69 mM)
9 | CC1=NO[C@@]2(CC[C@H](C)N3C[C@H]2n2cc(C(=O)NCc4ccc(F)cc4F)c(=O)c(OCOC(=O)OCC4(COP(=O)(O)O)CCC4)c2C3=O)C1 [Compound 47, (((3′S,5S,7′R)-10′-((2,4-difluorobenzyl)carbamoyl)-3,3′-dimethyl-1′,11′-dioxo-1′,4′,5′,11′-tetrahydro-3′H,4H,7′H-spiro[isoxazole-5,6′-[2,7]methanopyrido[1,2-a][1,4]diazonin]-12′-yl)oxy)methyl ((1-((phosphonooxy)methyl)cyclobutyl)methyl) carbonate] | – | – | – | 2.22 | 11.2 | 4.86 (≈ 6.57 mM)
10 | COC1=NO[C@@]2(CC[C@H](C)N3C[C@H]2n2cc(C(=O)NCc4ccc(F)cc4F)c(=O)c(OCOC(=O)OCC4(COP(=O)(O)O)CCC4)c2C3=O)C1 [Compound 48, (((3′S,5S,7′R)-10′-((2,4-difluorobenzyl)carbamoyl)-3-methoxy-3′-methyl-1′,11′-dioxo-1′,4′,5′,11′-tetrahydro-3′H,4H,7′H-spiro[isoxazole-5,6′-[2,7]methanopyrido[1,2-a][1,4]diazonin]-12′-yl)oxy)methyl ((1-((phosphonooxy)methyl)cyclobutyl)methyl) carbonate] | – | – | – | 3.82 | 15.7 | 4.92 (≈ 6.51 mM)
11 | CC1=NO[C@@]2(CC[C@H](C)N3C[C@H]2n2cc(C(=O)NCc4ccc(F)cc4F)c(=O)c(OCOC(=O)OC[C@@H]4C[C@@H]4COP(=O)(O)O)c2C3=O)C1 [Compound 49, (((3′S,5S,7′R)-10′-((2,4-difluorobenzyl)carbamoyl)-3,3′-dimethyl-1′,11′-dioxo-1′,4′,5′,11′-tetrahydro-3′H,4H,7′H-spiro[isoxazole-5,6′-[2,7]methanopyrido[1,2-a][1,4]diazonin]-12′-yl)oxy)methyl (((1R,2S)-2-((phosphonooxy)methyl)cyclopropyl)methyl) carbonate] | – | – | – | 4.17 | 23.3 | 4.89 (≈ 6.75 mM)
12 | CC1=NO[C@@]2(CC[C@H](C)N3C[C@H]2n2cc(C(=O)NCc4ccc(F)cc4F)c(=O)c(OCOC(=O)O[C@H]4CCCC[C@H]4OP(=O)(O)O)c2C3=O)C1 [Compound 51, (((3′S,5S,7′R)-10′-((2,4-difluorobenzyl)carbamoyl)-3,3′-dimethyl-1′,11′-dioxo-1′,4′,5′,11′-tetrahydro-3′H,4H,7′H-spiro[isoxazole-5,6′-[2,7]methanopyrido[1,2-a][1,4]diazonin]-12′-yl)oxy)methyl ((1S,2R)-2-(phosphonooxy)cyclohexyl) carbonate] | – | – | – | 2 | 21.2 | 4.4 (≈ 5.95 mM)
13 | CC1=NO[C@@]2(CC[C@H](C)N3C[C@H]2n2cc(C(=O)NCc4ccc(F)cc4F)c(=O)c(OCOC(=O)O[C@H]4CCCC[C@H]4COP(=O)(O)O)c2C3=O)C1 [Compound 53, (((3′S,5S,7′R)-10′-((2,4-difluorobenzyl)carbamoyl)-3,3′-dimethyl-1′,11′-dioxo-1′,4′,5′,11′-tetrahydro-3′H,4H,7′H-spiro[isoxazole-5,6′-[2,7]methanopyrido[1,2-a][1,4]diazonin]-12′-yl)oxy)methyl ((1S,2S)-2-((phosphonooxy)methyl)cyclohexyl) carbonate] | – | – | – | 4.96 | 35.7 | 4.68 (≈ 6.22 mM)
14 | CC1=NO[C@@]2(CC[C@H](C)N3C[C@H]2n2cc(C(=O)NCc4ccc(F)cc4F)c(=O)c(OCOC(=O)O[C@@H]4CC[C@H](OP(=O)(O)O)C4)c2C3=O)C1 [Compound 54, (((3′S,5S,7′R)-10′-((2,4-difluorobenzyl)carbamoyl)-3,3′-dimethyl-1′11′-dioxo-1′,4′,5′,11′-tetrahydro-3′H,4H,7′H-spiro[isoxazole-5,6′-[2,7]methanopyrido[1,2-a][1,4]diazonin]-12′-yl)oxy)methyl ((cis)-3-(phosphonooxy)cyclopentyl) carbonate] | – | – | – | 9.29 | ≥ 50 | 5.28 (≈ 7.29 mM)
15 | CC1=NO[C@@]2(CC[C@H](C)N3C[C@H]2n2cc(C(=O)NCc4ccc(F)cc4F)c(=O)c(OCOC(=O)OCC4(COP(=O)(O)O)COC(=O)N4C)c2C3=O)C1 (stereo partly drawn) [Compound 55, (((3′S,5S,7′R)-10′-((2,4-difluorobenzyl)carbamoyl)-3,3′-dimethyl-1′,11′-dioxo-1′,4′,5′,11′-tetrahydro-3′H,4H,7′H-spiro[isoxazole-5,6′-[2,7]methanopyrido[1,2-a][1,4]diazonin]-12′-yl)oxy)methyl ((3-methyl-2-oxo-4-((phosphonooxy)methyl)oxazolidin-4-yl)methyl) carbonate] | – | – | – | 2.5 | 12.9 | 5.53 (≈ 7.05 mM)
